Data on one compound can be found in patent US8809368B2, “Compounds affecting gap junction activity” (Kansas State University Research Foundation, priority 2006, dated 2014).

The subject of series [1] is T47D cells. The series is described as follows: MTT assay, cell proliferation and viability, T47D cells. The class given is cell-based, human. The following applies: 200 nM, 24 hours. As for the experimental part:
(§1) T47D breast cancer cells were treated with various concentrations of PQ1 for 24 hours. MTT assay was performed with adherent cell cultures using a culture medium free of phenol red and of serum. Solution containing MTT was metabolized by the cells (incubation period 3 hours). After solubilization of the MTT crystals with the solubilization solution MTT, the amount of dye was measured spectrophotometrically at 540 nm.
(§2) MTT assay: This assay is done to measure cell proliferation and viability. Yellow MTT (3-(4,5-Dimethylthiazol-2-yl)-2,5-diphenyltetrazolium bromide, a tetrazole) is reduced to purple crystals, formazan in the mitochondria of living cells. A solubilization solution is added to dissolve the insoluble purple formazan product into a colored solution. The absorbance of this colored solution can be measured by a spectrophotometer. T47 D cells (20,000) were grown in 96-well plate and dosed with 10, 100, 200, 500 nM of PQ1 compound in 100 μl of complete media for 24 hours. MTT (20 μl) was added to the cells and purple formazan crystals were observed after 90 minutes. A solubilization solution (0.35 N HCl) was added to dissolve the formazan and the absorbance was measured at 595 nm wavelength with a background wavelength 690 nm by a spectrophotometer.
(§3) The cytotoxicity of PQ1 in MEC and T47D cells using MTT assay was also determined. Cells were treated with 10, 100, 200, and 500 nM PQ1 for 24 hours. MTT assay was performed according to the manufacture's recommendations. A 200 nM PQ1 has 67% cell viability compared to controls (FIG. 16). Treatments of 100 and 200 nM PQ1 have 95% and 103% MEC cell viability compared to control. However, both MEC and T47D cells decrease cell viability to 50% and 65% at 1 μM PQ1, respectively. Thus, 100-200 nM of PQ1 is sufficient to enhance GJIC activity.
(§4) MTT assay. […] After solubilization of the MTT crystals with the solubilization solution MTT, the amount of dye will be measured spectrophotometrically at 540 nm.

Assay in series [2]: as above
It counts as cell-based, human. The following applies: human, T47D breast cancer cells. The method, then:
as §1, §2, §3, §4

Series [3] relates to human primary epithelial cells (MEC, normal cells). The series is described as follows: Scrape load/dye transfer GJIC assay, primary epithelial cells (MEC). The following applies: compared to its controls. It counts as cell-based. The method, then: Intercellular communication in many organs is maintained via GJIC. Several GJIC enhancers have been reported; however, an effective clinical drug targeting gap junction is not available at this time. The effect of PQ1 on the GJIC activity in T47D breast cancer cells was tested. […] Conversely, PQ1 has no effect on GJIC activity of human primary epithelial cells (MEC, normal cells) compared to its controls (data not shown). The distance of dye transfer from section cut to the farthest cells with dye was measured. […] MECs have uniform uptake of Lucifer yellow. This is due to the existing high level of gap junction activity of these normal cells.
Gap Junction Activity. For scrape load/dye transfer (SL/DT) assay, cells were grown to 90% confluency on cover slips, dosed with 10, 50, 100 and 200 nM of TCDD for 40 minutes. After that cells were washed three times with PBS. The 2.5 μl of 1% (w/v) Lucifer yellow and 0.75% (w/v) of Rhodamine dextran was mixed and added in the center of the coverslip. Two cuts crossing each other in the center of the coverslip were made. After three minutes, cells were washed three times with PBS and incubated at 37° C. in tissue culture media for 20 minutes. The cells were then washed with PBS three times and fixed in 2.5% paraformaldehyde for 10 minutes. Cells were mounted on a slide, sealed and visualized under a fluorescence microscope at 10× objective.

Molecules are shown by their SMILES.

On to `COc1cc(NCCCN)c2nccc(C)c2c1Oc1cccc(C(F)(F)F)c1.O=C(O)CCC(=O)O` [PQ1, 6-Methoxy-8-[(3-aminopropyl)amino]-4-methyl-5-(3-trifluoromethylphenyloxy) quinoline succinic acid], for which, in series [1], the “decrease in cell proliferation” value was 40%. Besides, the viability at 24 h, 0.2 µM in series [2] (200 nM, 24 hours, read-out: cell viability compared to controls) was determined as 67%. The compound further showed a viability at 24 h, 1 µM in series [2] (1 μM) of 65%. Besides, the GJIC activity entry in series [3] is on record as “no effect”.
